Laboratory results reported in patent US20240409585A1, “MACROCYCLIC IMMUNOMODULATORS” (priority 2021, published 2024).
Numbered stars: 1 amine (or outer) side, 2 acyl side, 3 side chain; on linkers, the order of the positions; unused ones are H or OH. Bridge positions count the residues as written; N and C are the ends. Square brackets hold non-standard residues; d marks the D form. Peptide text beside a SMILES is read from it. * marks the point of attachment. Bip(4'-COOH) = N[C@@H](Cc1ccc(-c2ccc(C(=O)O)cc2)cc1)C(=O)O; X13 = O=C(CCc1ccccc1)NCc1cccc(C[C@H](N[*:1])C(=O)[*:2])c1; X12 = O=C(NCc1cccc(C[C@H](N[*:1])C(=O)[*:2])c1)c1ccncc1; X6 = O=C(C[C@H](N[*:1])C(=O)[*:2])NS(=O)(=O)c1ccccc1Cl; Phe(3-CF3) = N[C@@H](Cc1cccc(C(F)(F)F)c1)C(=O)O; X3 = CC(=O)NCc1cccc(C[C@H](N[*:1])C(=O)[*:2])c1; Ala(morpholin-4-yl) = N[C@@H](CN1CCOCC1)C(=O)O; Phe(4-COOH) = N[C@@H](Cc1ccc(C(=O)O)cc1)C(=O)O; Bip = N[C@@H](Cc1ccc(-c2ccccc2)cc1)C(=O)O; Phe(3-I) = N[C@@H](Cc1cccc(I)c1)C(=O)O; Phe(3-Me) = Cc1cccc(C[C@H](N)C(=O)O)c1; Cha = N[C@@H](CC1CCCCC1)C(=O)O; Carboxymethyl = O=C(O)C*; NMeA = CN[C@@H](C)C(=O)O; Nle = CCCC[C@H](N)C(=O)O; Orn = NCCC[C@H](N)C(=O)O; Dab = NCC[C@H](N)C(=O)O

Tests used:
[1] = biological target: T1, PE-labeled human PD-L1-Ig binding to Jurkat cell line over-expressing human PD-1 (Jurkat-PD-1) (Homo sapiens, UniProt Q15116); assay: Jurkat-PD-1 Cell Binding High-Content Screening Assay (CBA): Method 2 (presence and absence of tween-20); conditions: Jurkat-PD-1 cells, PE-labeled PD-L1-Ig 20 nM, presence or absence of tween-20 not given
T1 construct: expressed in transfected cells; host or cells: Jurkat
T1 sequence (Q15116 25-288): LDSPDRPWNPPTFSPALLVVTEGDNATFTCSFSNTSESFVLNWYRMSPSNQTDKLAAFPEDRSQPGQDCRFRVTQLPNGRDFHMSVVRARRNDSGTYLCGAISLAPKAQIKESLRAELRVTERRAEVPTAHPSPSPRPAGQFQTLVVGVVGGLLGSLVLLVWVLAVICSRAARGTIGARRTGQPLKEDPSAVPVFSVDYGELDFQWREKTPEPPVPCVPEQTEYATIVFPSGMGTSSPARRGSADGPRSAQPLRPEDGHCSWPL
Experimental: Jurkat-PD-1 Cell Binding High-Content Screening Assay (CBA): Method 2
Phycoerythrin (PE) was covalently linked to the Ig epitope tag of human PD-L1-Ig and fluorescently labeled PD-L1-Ig was used for binding studies with a Jurkat cell line over-expressing human PD-1 (Jurkat-PD-1). […] 100 nl of compound was added to cells followed by incubation at 37° C. for 2 hours. To interrogate potential issues with compound aggregation, compounds were tested in the presence and absence of tween-20 detergent. […] Then, 5 μl of PE-labeled PD-L1-Ig (20 nM final), diluted in DMEM supplemented with 10% fetal calf serum. […] Data was collected and processed using a Cell Insight NXT High Content Imager and associated software.

[2] = biological target: T1, PE-labeled human PD-L1-Ig binding to Jurkat cell line over-expressing human PD-1 (Jurkat-PD-1); assay: Jurkat-PD-1 Cell Binding High-Content Screening Assay (CBA): Method 1; conditions: Jurkat-PD-1 cells, PE-labeled PD-L1-Ig
[3] = head μM, read-out: CBA Method 2 μM

Row | IC50 ([1]; nM, read-out: CBA Method 2) | IC50 ([2]; nM, read-out: CBA Method 1) | IC50 [1, 3] | IC50 ([2]; μM, read-out: CBA Method 1 μM) | SMILES
1 | 5 nM | 5.8 nM | – | – | CC(C)C[C@H]1NC(=O)[C@H](C)N(C)C(=O)[C@H](CCC(N)=O)NC(=O)[C@H](Cc2ccc(-c3ccccc3)cc2)NC(=O)[C@H](Cc2cccc(CNC(=O)c3ccncc3)c2)NC(=O)[C@H](Cc2cccc(I)c2)NC(=O)[C@H](CC(=O)O)NC(=O)[C@H](Cc2ccc(OCC(=O)O)cc2)NC(=O)[C@H](CN2CCOCC2)NC(=O)CSC[C@@H](C(=O)N[C@@H](CCN)C(N)=O)NC(=O)[C@H](CCCN)NC(=O)[C@H](C(C)C)NC(=O)[C@H](CC2CCCCC2)NC(=O)[C@H](CCN)NC1=O [Example 5020] ({CH2CO}-[Ala(morpholin-4-yl)]Y(Carboxymethyl)D[Phe(3-I)][X12][Bip]Q[NMeA][dL][Dab][Cha]V[Orn]C[Dab]-NH2; thioether N-14)
2 | – | – | 3.3 nM | 3.2 nM | CC(=O)NCc1cccc(C[C@@H]2NC(=O)CSC[C@@H](C(=O)N[C@@H](CCN)C(N)=O)NC(=O)[C@H](CCCN)NC(=O)[C@H](C(C)C)NC(=O)[C@H](CC3CCCCC3)NC(=O)[C@H](CCN)NC(=O)[C@@H](CC(C)C)NC(=O)[C@H](C)N(C)C(=O)[C@H](CCC(N)=O)NC(=O)[C@H](Cc3ccc(-c4ccccc4)cc3)NC(=O)[C@H](Cc3ccc(C(=O)O)cc3)NC(=O)[C@H](Cc3cccc(C)c3)NC(=O)[C@H](CC(=O)O)NC(=O)[C@H](Cc3ccc(OCC(=O)O)cc3)NC2=O)c1 [Example 5033] ({CH2CO}-[X3]Y(Carboxymethyl)D[Phe(3-Me)][Phe(4-COOH)][Bip]Q[NMeA][dL][Dab][Cha]V[Orn]C[Dab]-NH2; thioether N-14)
3 | – | – | 3.1 nM | 5.1 nM | Cc1cccc(C[C@@H]2NC(=O)[C@H](CC(=O)O)NC(=O)[C@H](Cc3ccc(OCC(=O)O)cc3)NC(=O)[C@H](Cc3cccc(CNC(=O)CCc4ccccc4)c3)NC(=O)CSC[C@@H](C(=O)N[C@@H](CCN)C(N)=O)NC(=O)[C@H](CCCN)NC(=O)[C@H](C(C)C)NC(=O)[C@H](CC3CCCCC3)NC(=O)[C@H](CCN)NC(=O)[C@@H](CC(C)C)NC(=O)[C@H](C)N(C)C(=O)[C@H](CCC(N)=O)NC(=O)[C@H](Cc3ccc(-c4ccccc4)cc3)NC(=O)[C@H](Cc3ccc(C(=O)O)cc3)NC2=O)c1 [Example 5034] ({CH2CO}-[X13]Y(Carboxymethyl)D[Phe(3-Me)][Phe(4-COOH)][Bip]Q[NMeA][dL][Dab][Cha]V[Orn]C[Dab]-NH2; thioether N-14)
4 | – | – | 26.7 nM | 40.1 nM | CCCC[C@@H]1NC(=O)CSC[C@@H](C(=O)N[C@@H](CCN)C(N)=O)NC(=O)[C@H](CCC(=O)O)NC(=O)[C@H](C(C)C)NC(=O)[C@H](CC2CCCCC2)NC(=O)[C@H](CCN)NC(=O)[C@@H](CC(C)C)NC(=O)[C@H](C)N(C)C(=O)[C@H](Cc2ccc(OCC(=O)O)cc2)NC(=O)[C@H](Cc2ccc(-c3ccccc3)cc2)NC(=O)[C@H](Cc2ccc(OCC(=O)O)cc2)NC(=O)[C@H](Cc2cccc(C(F)(F)F)c2)NC(=O)[C@H](CC(=O)O)NC(=O)[C@H](Cc2ccc(-c3ccc(C(=O)O)cc3)cc2)NC1=O [Example 5074] ({CH2CO}-[Nle][Bip(4'-COOH)]D[Phe(3-CF3)]Y(Carboxymethyl)[Bip]Y(Carboxymethyl)[NMeA][dL][Dab][Cha]VEC[Dab]-NH2; thioether N-14)
5 | – | – | 332 nM | 224 nM | CC(C)C[C@H]1NC(=O)[C@H](C)N(C)C(=O)[C@H](CCC(N)=O)NC(=O)[C@H](Cc2ccc(-c3ccccc3)cc2)NC(=O)[C@H](Cc2ccc(C(=O)O)cc2)NC(=O)[C@H](Cc2cccc(C(F)(F)F)c2)NC(=O)[C@H](CC(=O)NS(=O)(=O)c2ccccc2Cl)NC(=O)[C@H](Cc2ccc(C(=O)O)cc2)NC(=O)[C@H](CN2CCOCC2)NC(=O)CSC[C@@H](C(=O)N[C@@H](CCN)C(N)=O)NC(=O)[C@H](CCCN)NC(=O)[C@H](C(C)C)NC(=O)[C@H](CC2CCCCC2)NC(=O)[C@H](CCN)NC1=O [Example 5080] ({CH2CO}-[Ala(morpholin-4-yl)][Phe(4-COOH)][X6][Phe(3-CF3)][Phe(4-COOH)][Bip]Q[NMeA][dL][Dab][Cha]V[Orn]C[Dab]-NH2; thioether N-14)
